Laboratory results from patent publication US20190274952A1, “TOPICAL USE OF AN ANTIMICROBIAL FORMULATION” (priority 2013, published 2019).
Where two headings read alike, the source gives them in different places.

Experiments:
[1] = cited from earlier work
[2] = test system: Staphylococcus aureus (ATCC 6538); experiment: Minimal concentration for total antimicrobial activity, AOAC method 955.15 (Phenol Coefficient Method); type: cell-based; conditions: agent incorporated into formulation F, contact time 10 minutes
Method: The minimum concentration at which a total antimicrobial activity could be observed is determined for selected phenolic compounds of natural origin and selected essential oils using the AOAC method 955.15 (“Phenol Coefficient Method”) with minor modifications. Different concentrations of essential oils and phenolic compounds of natural origin are incorporated into formulation F (see table hereinbelow) and inoculated with a 0.05% bacterial suspension of Staphylococcus aureus (ATCC 6538; concentration of about 8 logs). After a contact time of 10 minutes, 0.1 ml of the inoculated solution is transferred to a broth culture with neutralizing (Difco 268110) and incubated over a period of 72 hours at 37° C. The presence of turbidity in the broth culture is indicative of the survival of the microorganism

Compound	LD50 Oral-rat ([1]; ingredients of Formulation 1)	Minimal Concentration [2]	also measured
OCCCO [1,3-Propanediol]	>15 000 mg/kg	–	–
Cc1ccc(C(C)C)cc1O [Carvacrol]	–	0.07 v/v %	–
CCCCCCCCCCCCCCCC[N+](C)(C)CC(=O)[O-] [Cetyl Betaine]	1620 mg/kg	–	–
CC(C)=CCCC(C)=CC=O [Citral]	–	>1% v/v %	–
C=CCc1ccc(O)c(OC)c1 [Eugenol]	–	0.4 v/v %	–
C=O [Formaldehyde]	–	–	LD50 ([1]; rat, in vivo, po): of 100 mg/Kg; LD50 Oral-rat ([1]; rat, in vivo, po): 100 mg/kg; Toxicity ([1]; rat, in vivo): Toxic
COCC(C)O (centres unmarked) [Glycol Ether PM]	5 210 mg/kg	–	–
Cc1ccc(C(C)C)c(O)c1 [Thymol]	–	0.07 v/v %	–
Sodium Laureth Sulfate	>5000 mg/kg	–	–
